Measured values: patent US7365154B2, “Peptides antagonistic to an anti-angiogenic antibody and uses therefor” (Centocor, Inc., priority 2003, dated 2008)
Entries after “also recorded” stand apart in the source; their conditions may differ.

Experiments:
[1] = tested on: A375.S2 cells (human melanoma cells); assay: Flow cytometry of CNTO95 binding to surface integrins of A375.S2 cells with or without peptides; format: cell-based; settings: CNTO95 only 10 ug/ml, no peptide
Procedure: For the detection of surface integrins, A375.S2 cells (human melanoma cells) were harvested, rinsed, suspended in unsupplemented RPMI media. The antibody, CNTO95, was incubated at a final concentration of 10 ug/ml with or without peptides at the concentrations given in Table 1 for 1 hr. Then, the cell solution was added and incubated for an additonal 60 minutes on ice followed by addition of PE-labeled goat anti-human antibody IgG-Fc (10 ug/ml). Absence of primary antibody or substitution of primary antibody with isotype matched antibody served as negative controls. Cells were immediately analyzed with a FACS Scan II flow cytometer (Becton Dickinson, Mountain View, Calif.). […] For simplicity, the mean channel fluorescence for each peak was used as the relative staining value (Table 5).

CEN2319 coated plates = assay: ELISA of other antibodies on CEN2319 coated plates; format: binding; settings: negative control antibodies
Procedure: (§1) To verify the binding activity of synthetic peptides to CNTO95 mAb, ELISAs were performed using peptide-coated plates. PRO-Bind ELISA plates (Falcon) were coated with 100 μl (100 μg/ml) of either CEN 2319, CEN2322 or PBS buffer. Peptide-charged ELISA plates were incubated with 100 μl of various concentrations of CNTO95 mAb for 2 hours at 37° C., and the wells then were washed with PBS plus 0.5% Tween 20 (PBST). Binding was detected with a 1:5,000 dilution of peroxidase-conjugated goat anti-human IgG, Fc gamma fragment antibody (Jackson) and color development with 3,3′,5,5′-tetramethyl-benzidine dihydrochloride (TMB). The reaction was detected by reading the absorbance at 450 nm. PBS-coated wells were used as background control. […] Another set of negative control was performed using mAb CNTO1275 (FIG. 4C). The binding signal is negative.

[2] = tested on: CNTO95 mAb binding to integrin αVβ3; assay: Competitive ELISA on plates coated with integrin αVβ3; design: species or system human; settings: peptide 0 to 200 μg/ml
Procedure: (§2) Competitive ELISA on microtiter plates coated with integrins αVβ3 or αVβ5 were carried out to evaluate the binding specificity for CEN2319 peptide to CNTO95 mAb. 100 ul of 5 μg/ml either αVβ3 or αVβ5 (Chemicon, Temacula, Calif.) was coated on the ELISA plates at […] over night. Then, 100 μl of 2 μg/ml CNTO95 was pre-incubated at room temperature for 30 minutes with various concentration peptides (100 μl), ranging from 0 to 200 μg/ml. The peptide-antibody mixtures were then added to the integrin-coated microwells. Following incubation at 37° C. for 2 hours, the plates were washed thoroughly, and bound CNTO95 was detected using peroxidase-conjugated goat anti-human IgG, Fc gamma fragment antibody (1:5,000 dilution), followed by substrate addition as above.

CNTO95 [3] = assay: Positional substitution analysis: peptides spotted on nitrocellulose membrane probed with CNTO95; format: binding, human; design: key: +++: very strong; ++: strong; +: equivalent; ±: weak; Blank: negative; settings: CEN2319 with one position substituted, + = equivalent
Procedure: In order to further understand the contribution of each amino acid residue in the binding, systematic substitution at each position were made and tested. The binding analysis was carried out by spotting the various peptides on a nitrocellulose membrane and probing with CNTO95 followed by HRP-conjugated goat-anti-human Fc antibody and color developed using a peroxidase substrate.

CNTO95 mAb = assay: ELISA for CNTO95 binding to synthetic peptide-coated plates; design: species or system human; settings: plates coated with 100 μg/ml peptide, absorbance at 450 nm
Procedure: as §1

[4] = tested on: CNTO95 mAb binding to integrin αVβ5; assay: Competitive ELISA on plates coated with integrin αVβ5; design: species or system human; settings: peptide 0 to 200 μg/ml
Procedure: as §2

[5] = tested on: M21, human melanoma cells; assay: Cell adhesion assay on vitronectin coated plates, CNTO95 with peptides; format: cell-based; settings: FIG. 7
Procedure: For cell adhesion assays, Microtiter plates (Linbro-Titertek, ICN Biomedicals, Inc) were coated at 4° C. overnight with vitronectin (1 mg/ml). Immediately before use plates were rinsed with PBS and blocked for 1 hour with 1% BSA/PBS (pH 7.4). Adherent cells (M21, human melanoma cells) were labeled with Calcein AM fluorescent dye (Molecular Probes, Eugene, Oreg.) according to the manufacturer's instructions, harvested, washed twice, and suspended in 0.1% BSA in DMEM medium. Various concentration of Antibodies were incubated with peptides for 1 hrs. Cell density was adjusted to 5×10^5/ml and they were incubated with antibody and peptide solution for 15 min at 37° C. The cell-antibody mixture was added to wells (100 μl per well) and incubated for 1 h at 37° C. Plates were rinsed twice with PBS to remove unbound cells and adhesion was measured in a fluorescence plate reader (Fluoroskan) at 485-538 nm. Cell adhesion to BSA-coated wells served as a negative control. Isotype matched antibodies served as a negative control.

CNTO95 [6] = assay: Titration microcalorimetry of synthetic peptides with CNTO95; format: binding, human
Procedure: Titration microcalorimetry is a technique used to measure equilibrium binding affinity by monitoring the enthalpy of binding as a function of titrant added to second molecule at fixed temperature. To determine binding affinities and stoichiometries of synthetic peptides for CNTO95, titration calorimetry experiments were carried out with a Microcal (Amherst, Mass.) MCS isothermal titration calorimeter. Protein concentrations were measured by absorbance at 280 nm. Aliquots of peptide were titrated into a fixed concentration of CNTO95 at 3 μM in Dulbecco's PBS. Heats of binding are monitored with each injection. Peptides were added until the observed heats approach the heats of diluted peptides into buffer. Calorimetry data were analyzed with Microcal ORIGIN software according to a single-site binding model in each case (Wiseman et al., Anal. Biochem. 179: 131-137, 1989). The model includes an equilibrium binding constant (Kd), a molar binding enthalpy change (ΔH) and a molar binding ratio for the binding reaction at 25° C. Table 3 gives the calculated CNTO95 binding properties of synthetic peptides from titration calorimetry data.

CNTO95: fully human IgG1, kappa monoclonal antibody recognizing integrins αVβ3 and αVβ5
Mean Channel Fluorescence [1]: 89.7

CNTO1275: another human mAb to an unrelated antigen
antibody binding to CEN2319 coated plates (CEN2319 coated plates): negative

DFRSWWDLSGYR [CEN2319]
competition with CNTO95 binding to αVβ3 (in words) [2]: inhibits | Intensity (relative density of color at each spot) (CNTO95 [3]; listed as D1D): + | Intensity (relative density of color at each spot) (CNTO95 [3]; listed as D7D): ++ | Intensity (relative density of color at each spot) (CNTO95 [3]; listed as F2F): + | Intensity (relative density of color at each spot) (CNTO95 [3]; listed as G10G): + | Intensity (relative density of color at each spot) (CNTO95 [3]; listed as L8L): ++ | Intensity (relative density of color at each spot) (CNTO95 [3]; listed as R3R): + | Intensity (relative density of color at each spot) (CNTO95 [3]; listed as R12R): + | Intensity (relative density of color at each spot) (CNTO95 [3]; listed as S4S): + | Intensity (relative density of color at each spot) (CNTO95 [3]; listed as S9S): + | Intensity (relative density of color at each spot) (CNTO95 [3]; listed as W5W): ++ | Intensity (relative density of color at each spot) (CNTO95 [3]; listed as W6W): + | Intensity (relative density of color at each spot) (CNTO95 [3]; listed as Y11Y): + | CNTO95 mAb binding to peptide-coated plates (CNTO95 mAb): recognized specifically; also recorded: specific binding | competition with CNTO95 binding to αVβ5 (in words) [4]: significant inhibition; also recorded: inhibits

DFRSWWDLEE (Phage Library Derived Sequence) [CEN2553, alternate antagonist peptide, 10-mer]
effect on the inhibition of cellular adhesion by CNTO95 to vitronectin coated plates [5]: indistinguishable from the peptide CEN2319

SPLFXPW [flanked by cysteine residues which form a disulfide bond]
CNTO95 mAb binding to peptide-coated plates (CNTO95 mAb): no specific binding was detected

DYRTA ADTTGLQ (DYRTAADTTGLQ; PEPTIDE (1)..(12) Residues 564 to 575 inclusive of human alpha V integrin subunit protein; listed as Homo sapiens) [CEN2322]
competition with CNTO95 binding to αVβ3 (in words) [2]: did not compete | CNTO95 mAb binding to peptide-coated plates (CNTO95 mAb): did not bind | competition with CNTO95 binding to αVβ5 (in words) [4]: did not compete | Comments (binding to CNTO95 by calorimetry) (CNTO95 [6]): no evidence for CEN2322 peptide binding to CNTO95 mAb
